Measurements: ChEMBL document CHEMBL5316328, “Discovery of AXL Degraders with Improved Potencies in Triple-Negative Breast Cancer (TNBC) Cells” (J Med Chem, 2023)

biological target: von Hippel-Lindau disease tumor suppressor/Tyrosine-protein kinase receptor UFO (Homo sapiens, UniProt P30530+P40337); experiment: PROTAC activity at VHL/AXL in human MDA-MB-231 cells assessed as induction of AXL degradation incubated for 24 hrs by immunoblot analysis; format: cell-based; conditions: not given
Sequence (P30530 whole entry): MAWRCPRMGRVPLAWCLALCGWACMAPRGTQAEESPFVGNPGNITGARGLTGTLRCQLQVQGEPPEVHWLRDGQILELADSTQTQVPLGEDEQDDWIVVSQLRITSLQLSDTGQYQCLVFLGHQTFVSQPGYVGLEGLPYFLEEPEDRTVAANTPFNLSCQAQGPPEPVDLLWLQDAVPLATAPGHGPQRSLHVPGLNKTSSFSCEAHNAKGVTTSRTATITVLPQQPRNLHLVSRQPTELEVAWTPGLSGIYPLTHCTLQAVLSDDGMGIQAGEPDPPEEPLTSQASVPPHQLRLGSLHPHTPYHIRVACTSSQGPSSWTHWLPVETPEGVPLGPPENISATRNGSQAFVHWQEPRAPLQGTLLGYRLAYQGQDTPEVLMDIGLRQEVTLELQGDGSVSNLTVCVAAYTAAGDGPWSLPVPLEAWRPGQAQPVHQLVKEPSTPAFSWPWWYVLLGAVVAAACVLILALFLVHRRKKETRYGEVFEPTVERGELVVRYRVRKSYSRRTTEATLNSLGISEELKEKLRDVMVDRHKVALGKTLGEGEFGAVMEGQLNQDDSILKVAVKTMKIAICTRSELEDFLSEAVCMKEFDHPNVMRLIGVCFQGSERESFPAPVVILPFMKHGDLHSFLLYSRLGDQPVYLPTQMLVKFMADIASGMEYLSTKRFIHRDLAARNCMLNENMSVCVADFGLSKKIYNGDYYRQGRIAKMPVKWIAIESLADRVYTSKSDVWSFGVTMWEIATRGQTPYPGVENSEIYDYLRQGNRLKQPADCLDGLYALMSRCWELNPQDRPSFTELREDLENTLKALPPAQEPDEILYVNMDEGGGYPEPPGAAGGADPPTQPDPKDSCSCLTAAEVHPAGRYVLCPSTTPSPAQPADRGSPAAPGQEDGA
Sequence (P40337 whole entry): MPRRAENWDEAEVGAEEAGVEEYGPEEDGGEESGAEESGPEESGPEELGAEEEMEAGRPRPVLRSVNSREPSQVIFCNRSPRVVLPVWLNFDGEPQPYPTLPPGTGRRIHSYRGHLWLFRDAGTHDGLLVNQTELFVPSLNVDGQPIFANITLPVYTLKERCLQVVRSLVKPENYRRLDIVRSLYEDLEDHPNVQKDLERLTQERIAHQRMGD

| SMILES | EC50 [µM] |
| --- | --- |
| CCc1ccc2c(c1)c(=O)c(C(=O)Nc1ccc(Oc3ncnc4cc(OCC(=O)N[C@H](C(=O)N5C[C@H](O)C[C@H]5C(=O)NCc5ccc(-c6scnc6C)cc5)C(C)(C)C)c(OC)cc34)c(F)c1)c(C)n2C | > 10 |
| CCc1ccc2c(c1)c(=O)c(C(=O)Nc1ccc(Oc3ncnc4cc(OCCCC(=O)N[C@H](C(=O)N5C[C@H](O)C[C@H]5C(=O)NCc5ccc(-c6scnc6C)cc5)C(C)(C)C)c(OC)cc34)c(F)c1)c(C)n2C | > 10 |
| CCc1ccc2c(c1)c(=O)c(C(=O)Nc1ccc(Oc3ncnc4cc(OCCCCCCCCCC(=O)N[C@H](C(=O)N5C[C@H](O)C[C@H]5C(=O)NCc5ccc(-c6scnc6C)cc5)C(C)(C)C)c(OC)cc34)c(F)c1)c(C)n2C | > 10 |

Second part, the compound after the results:

| EC50 [µM] | SMILES |
| --- | --- |
| > 10 | CCc1ccc2c(c1)c(=O)c(C(=O)Nc1ccc(Oc3ncnc4cc(OCCCCCCCC(=O)N[C@H](C(=O)N5C[C@H](O)C[C@H]5C(=O)NCc5ccc(-c6scnc6C)cc5)C(C)(C)C)c(OC)cc34)c(F)c1)c(C)n2C |
| > 10 | CCc1ccc2c(c1)c(=O)c(C(=O)Nc1ccc(Oc3ncnc4cc(OCCCCCC(=O)N[C@H](C(=O)N5C[C@H](O)C[C@H]5C(=O)NCc5ccc(-c6scnc6C)cc5)C(C)(C)C)c(OC)cc34)c(F)c1)c(C)n2C |
| > 10 | CCc1ccc2c(c1)c(=O)c(C(=O)Nc1ccc(Oc3ncnc4cc(OCCCCCCCCCCCC(=O)N[C@H](C(=O)N5C[C@H](O)C[C@H]5C(=O)NCc5ccc(-c6scnc6C)cc5)C(C)(C)C)c(OC)cc34)c(F)c1)c(C)n2C |

biological target: Protein cereblon/Tyrosine-protein kinase receptor UFO (Homo sapiens, UniProt P30530+Q96SW2); experiment: PROTAC activity at CRBN/AXL in human MDA-MB-231 cells assessed as induction of AXL degradation incubated for 24 hrs by immunoblot analysis; format: cell-based; conditions: not given
Sequence (P30530 whole entry): as the sequence (P30530 whole entry) above
Sequence (Q96SW2 whole entry): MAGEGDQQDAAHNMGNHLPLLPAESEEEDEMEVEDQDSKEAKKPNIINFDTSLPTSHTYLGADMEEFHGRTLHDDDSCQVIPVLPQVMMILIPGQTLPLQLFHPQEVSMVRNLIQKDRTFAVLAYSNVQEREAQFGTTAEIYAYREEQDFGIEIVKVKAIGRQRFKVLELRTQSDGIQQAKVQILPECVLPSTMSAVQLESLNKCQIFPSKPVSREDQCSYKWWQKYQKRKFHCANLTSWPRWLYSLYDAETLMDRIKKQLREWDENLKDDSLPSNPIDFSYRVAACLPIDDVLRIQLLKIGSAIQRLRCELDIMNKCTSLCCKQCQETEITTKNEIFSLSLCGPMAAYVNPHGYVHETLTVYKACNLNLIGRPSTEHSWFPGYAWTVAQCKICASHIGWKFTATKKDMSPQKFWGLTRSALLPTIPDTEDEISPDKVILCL

| SMILES | EC50 [µM] |
| --- | --- |
| CCc1ccc2c(c1)c(=O)c(C(=O)Nc1ccc(Oc3ncnc4cc(OCCCCCCCC(=O)Nc5cccc6c5C(=O)N(C5CCC(=O)NC5=O)C6=O)c(OC)cc34)c(F)c1)c(C)n2C (centres undefined) | > 10 |
| CCc1ccc2c(c1)c(=O)c(C(=O)Nc1ccc(Oc3ncnc4cc(OCCCCCCCCCCCC(=O)Nc5ccc6c(c5)C(=O)N(C5CCC(=O)NC5=O)C6=O)c(OC)cc34)c(F)c1)c(C)n2C (centres undefined) | > 10 |
| CCc1ccc2c(c1)c(=O)c(C(=O)Nc1ccc(Oc3ncnc4cc(OCCCCCCCC(=O)Nc5ccc6c(c5)C(=O)N(C5CCC(=O)NC5=O)C6=O)c(OC)cc34)c(F)c1)c(C)n2C (centres undefined) | 0.108 |
| CCc1ccc2c(c1)c(=O)c(C(=O)Nc1ccc(Oc3ncnc4cc(OCCCCCC(=O)Nc5cccc6c5C(=O)N(C5CCC(=O)NC5=O)C6)c(OC)cc34)c(F)c1)c(C)n2C (centres undefined) | > 10 |
| CCc1ccc2c(c1)c(=O)c(C(=O)Nc1ccc(Oc3ncnc4cc(OCCCCCC(=O)Nc5cccc6c5CN(C5CCC(=O)NC5=O)C6=O)c(OC)cc34)c(F)c1)c(C)n2C (centres undefined) | > 10 |
| CCc1ccc2c(c1)c(=O)c(C(=O)Nc1ccc(Oc3ncnc4cc(OCCCCCCCCCCCC(=O)Nc5cccc6c5C(=O)N(C5CCC(=O)NC5=O)C6=O)c(OC)cc34)c(F)c1)c(C)n2C (centres undefined) | > 10 |
| CCc1ccc2c(c1)c(=O)c(C(=O)Nc1ccc(Oc3ncnc4cc(OCC(=O)Nc5ccc6c(c5)C(=O)N(C5CCC(=O)NC5=O)C6=O)c(OC)cc34)c(F)c1)c(C)n2C (centres undefined) | > 10 |
| CCc1ccc2c(c1)c(=O)c(C(=O)Nc1ccc(Oc3ncnc4cc(OCCCCCCCCCC(=O)Nc5cccc6c5C(=O)N(C5CCC(=O)NC5=O)C6=O)c(OC)cc34)c(F)c1)c(C)n2C (centres undefined) | > 10 |
| CCc1ccc2c(c1)c(=O)c(C(=O)Nc1ccc(Oc3ncnc4cc(OCC(=O)Nc5cccc6c5C(=O)N(C5CCC(=O)NC5=O)C6=O)c(OC)cc34)c(F)c1)c(C)n2C (centres undefined) | > 10 |
| CCc1ccc2c(c1)c(=O)c(C(=O)Nc1ccc(Oc3ncnc4cc(OCCCCCCCCCC(=O)Nc5ccc6c(c5)C(=O)N(C5CCC(=O)NC5=O)C6=O)c(OC)cc34)c(F)c1)c(C)n2C (centres undefined) | > 10 |
| CCc1ccc2c(c1)c(=O)c(C(=O)Nc1ccc(Oc3ncnc4cc(OCCCCC(=O)Nc5ccc6c(c5)C(=O)N(C5CCC(=O)NC5=O)C6=O)c(OC)cc34)c(F)c1)c(C)n2C (centres undefined) | > 10 |
| CCc1ccc2c(c1)c(=O)c(C(=O)Nc1ccc(Oc3ncnc4cc(OCCCCCC(=O)Nc5ccc6c(c5)C(=O)N(C5CCC(=O)NC5=O)C6)c(OC)cc34)c(F)c1)c(C)n2C (centres undefined) | > 10 |

Further lines, results first:

| EC50 [µM] | SMILES |
| --- | --- |
| 0.04 | CCc1ccc2c(c1)c(=O)c(C(=O)Nc1ccc(Oc3ncnc4cc(OCCCCCC(=O)Nc5ccc6c(c5)C(=O)N(C5CCC(=O)NC5=O)C6=O)c(OC)cc34)c(F)c1)c(C)n2C (centres undefined) |
| > 10 | CCc1ccc2c(c1)c(=O)c(C(=O)Nc1ccc(Oc3ncnc4cc(OCCCCC(=O)Nc5cccc6c5C(=O)N(C5CCC(=O)NC5=O)C6=O)c(OC)cc34)c(F)c1)c(C)n2C (centres undefined) |
| > 10 | CCc1ccc2c(c1)c(=O)c(C(=O)Nc1ccc(Oc3ncnc4cc(OCCCCCC(=O)Nc5cccc6c5C(=O)N(C5CCC(=O)NC5=O)C6=O)c(OC)cc34)c(F)c1)c(C)n2C (centres undefined) |

tested on: MDA-MB-231; experiment: Antiproliferative activity against human MDA-MB-231 cells expressing AXL assessed as inhibition of cell growth incubated for 72 hrs by CCK8 assay; format: functional, cell-based; conditions: MDA-MB-231, 72 h

| IC50 [µM] | SMILES |
| --- | --- |
| > 5 | CCc1ccc2c(c1)c(=O)c(C(=O)Nc1ccc(Oc3ncnc4cc(OCCCCCC(=O)Nc5ccc6c(c5)CN(C5CCC(=O)N(C)C5=O)C6=O)c(OC)cc34)c(F)c1)c(C)n2C (centres undefined) |

tested on: MDA-MB-436; experiment: Antiproliferative activity against human MDA-MB-436 cells expressing AXL assessed as inhibition of cell growth incubated for 72 hrs by CCK8 assay; format: functional, cell-based; conditions: MDA-MB-436, 72 h

| IC50 [µM] | SMILES |
| --- | --- |
| > 5 | CCc1ccc2c(c1)c(=O)c(C(=O)Nc1ccc(Oc3ncnc4cc(OCCCCCC(=O)Nc5ccc6c(c5)CN(C5CCC(=O)N(C)C5=O)C6=O)c(OC)cc34)c(F)c1)c(C)n2C (centres undefined) |

tested on: MDA-MB-453; experiment: Antiproliferative activity against human MDA-MB-453 cells assessed as inhibition of cell growth incubated for 72 hrs by CCK8 assay; format: functional, cell-based; conditions: MDA-MB-453, 72 h

| IC50 [µM] | SMILES |
| --- | --- |
| > 5 | CCc1ccc2c(c1)c(=O)c(C(=O)Nc1ccc(Oc3ncnc4cc(OCCCCCC(=O)Nc5ccc6c(c5)CN(C5CCC(=O)N(C)C5=O)C6=O)c(OC)cc34)c(F)c1)c(C)n2C (centres undefined) |
